Tested on: DT40 lymphoma cells
Experiment: not given
Settings: in cancer cells, at 50 μM of compound 5-I; sensitizing effect; cited from earlier work

Compound | maximal efficacy, cell viability
N#Cc1ccc2cc3c(=O)[nH]c(=O)nc-3n(-c3cccc(-c4nnn[nH]4)c3)c2c1 [compound 5-I] | around 10%

Biological target: hTdp2 (Rec) (Homo sapiens (Human), UniProt O95551)
Experiment: SUMO hTDP2cat fluorescence-based biochemical assay
Settings: not given
Experimental: Biochemical Potency. The enzymatic activity of TDP2 was measured with a SUMO hTDP2cat fluorescence-based biochemical assay. […] After a pre-incubation period of 10 minutes, 5 μL of substrate 5′-(6-FAM-NHS)(5′-tyrosine)GATCT(3′-BHQ-1)-3′ (1 μM, final concentration of 0.25 μM) was added, and the reaction was allowed to proceed at 25° C. for 60 minutes. The fluorescence was measured, and the data was processed as described previously for 14M_zTDP2.

Sequence of hTdp2 (Rec) (O95551 113-362): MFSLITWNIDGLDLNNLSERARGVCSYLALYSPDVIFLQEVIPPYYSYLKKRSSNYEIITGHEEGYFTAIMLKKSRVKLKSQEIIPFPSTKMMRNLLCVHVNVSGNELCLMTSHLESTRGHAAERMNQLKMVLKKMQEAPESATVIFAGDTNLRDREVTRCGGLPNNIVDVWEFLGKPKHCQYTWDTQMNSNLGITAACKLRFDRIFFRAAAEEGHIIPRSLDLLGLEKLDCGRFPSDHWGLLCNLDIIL

Compound | IC50
N#Cc1ccc2cc3c(=O)[nH]c(=O)nc-3n(-c3ccc(Oc4ccc(NC(=O)Oc5ccccc5)cc4)cc3)c2c1 [Example 118] | 795 ± 40 nM
N#Cc1ccc2cc3c(=O)n(-c4cccc(NC(=O)Oc5ccccc5)c4)c(=O)nc-3n(-c3ccc(O)cc3)c2c1 [Example 132, Phenyl-(3-(8-cyano-10-(4-hydroxyphenyl)-2,4-dioxo-4,10-dihydropyrimido[4,5-b]quinolin-3(2H)-yl)phenyl)carbamate] | 119 ± 4 nM
N#Cc1ccc2cc3c(=O)n(-c4ccc(NC(=O)Oc5ccccc5)cc4)c(=O)nc-3n(-c3ccc(O)cc3)c2c1 [Example 133, Phenyl-(4-(8-cyano-10-(4-hydroxyphenyl)-2,4-dioxo-4,10-dihydropyrimido[4,5-b]quinolin-3(2H)-yl)phenyl)carbamate] | 59 ± 4 nM
N#Cc1ccc2cc3c(=O)n(-c4cccc(NP(=O)(Oc5ccccc5)Oc5ccccc5)c4)c(=O)nc-3n(-c3ccc(O)cc3)c2c1 [Example 134, Diphenyl-(3-(8-cyano-10-(4-hydroxyphenyl)-2,4-dioxo-4,10-dihydropyrimido[4,5-b]quinolin-3(2H)-yl)phenyl)phosphoramidate] | 277 ± 11 nM
N#Cc1ccc2cc3c(=O)n(-c4ccc(NP(=O)(Oc5ccccc5)Oc5ccccc5)cc4)c(=O)nc-3n(-c3ccc(O)cc3)c2c1 [Example 135, Diphenyl-(4-(8-cyano-10-(4-hydroxyphenyl)-2,4-dioxo-4,10-dihydropyrimido[4,5-b]quinolin-3(2H)-yl)phenyl)phosphoramidate] | 185 ± 9 nM
N#Cc1ccc2cc3c(=O)n(-c4ccc(CNP(=O)(Oc5ccccc5)Oc5ccccc5)cc4)c(=O)nc-3n(-c3ccc(O)cc3)c2c1 [Example 136, Diphenyl-(4-(8-cyano-10-(4-hydroxyphenyl)-2,4-dioxo-4,10-dihydropyrimido[4,5-b]quinolin-3(2H)-yl)benzyl)phosphoramidate] | 119 ± 3 nM

Same assay, conditions: SUMO hTDP2cat 3.13 pM, substrate 0.25 μM, 25° C., 60 minutes; read-out: hTdp2 (Rec) IC50

Compound | IC50
CC1(C)OB(c2cccc(Oc3ccc(-n4c5nc(=O)[nH]c(=O)c-5cc5ccc(C#N)cc54)cc3)c2)OC1(C)C [Example 119, 2,4-Dioxo-10-(4-(3-(4,4,5,5-tetramethyl-1,3,2-dioxaborolan-2-yl)phenoxy)phenyl)-2,3,4,10-tetrahydropyrimido[4,5-b]quinoline-8-carbonitrile] | 8.28 ± 0.44 nM
N#Cc1ccc2cc3c(=O)[nH]c(=O)nc-3n(-c3ccc(Oc4cccc(B(O)O)c4)cc3)c2c1 [Example 120, (3-(4-(8-Cyano-2,4-dioxo-3,4-dihydropyrimido[4,5-b]quinolin-10(2H)-yl)phenoxy)phenyl) boronic acid] | 5.01 ± 0.69 nM
CC1(C)OB(c2cccc(COc3ccc(-n4c5nc(=O)[nH]c(=O)c-5cc5ccc(C#N)cc54)cc3)c2)OC1(C)C [Example 121, 2,4-Dioxo-10-(4-((3-(4,4,5,5-tetramethyl-1,3,2-dioxaborolan-2-yl)benzyl)oxy)phenyl)-2,3,4,10-tetrahydropyrimido[4,5-b]quinoline-8-carbonitrile] | 47 ± 4 nM
CC1(C)OB(c2ccc(COc3ccc(-n4c5nc(=O)[nH]c(=O)c-5cc5ccc(C#N)cc54)cc3)cc2)OC1(C)C [Example 122, 2,4-Dioxo-10-(4-((4-(4,4,5,5-tetramethyl-1,3,2-dioxaborolan-2-yl)benzyl)oxy)phenyl)-2,3,41,10-tetrahydropyrimido[4,5-b]quinoline-8-carbonitrile] | 359 ± 32 nM
N#Cc1ccc2cc3c(=O)[nH]c(=O)nc-3n(-c3ccc(OCc4cccc(B(O)O)c4)cc3)c2c1 [Example 123, (3-((4-(8-Cyano-2,4-dioxo-3,4-dihydropyrimido [4,5-b]quinolin-10(2H)-yl)phenoxy)methyl)phenyl) boronic acid] | 39 ± 3 nM
N#Cc1ccc2cc3c(=O)[nH]c(=O)nc-3n(-c3ccc(OCc4ccc(B(O)O)cc4)cc3)c2c1 [Example 124, (4-((4-(8-Cyano-2,4-dioxo-3,4-dihydropyrimido [4,5-b]quinolin-10(2H)-yl)phenoxy)methyl)phenyl) boronic acid] | 239 ± 18 nM
O=c1nc2n(-c3ccc(Oc4cccc(B(O)O)c4)cc3)c3cc(Cl)ccc3cc-2c(=O)[nH]1 [Example 143, (3-(4-(8-Chloro-2,4-dioxo-3,4-dihydropyrimido[4,5-b]quinolin-10(2H)yl)phenoxy)phenyl) boronic acid] | 3.85 ± 0.37 nM
